Assays:
[1] = target: T1, RXRB (retinoid X receptor, beta) (Homo sapiens, UniProt P28702); test: ATG_RXRb_TRANS: Factorial reporter gene assay (HepG2); assay type: cell-based; conditions: HepG2; scale not given, looks like -log10 of molar active concentration; 0 = no activity
T1 construct: expressed in transfected cells; host or cells: HepG2
T1 sequence (P28702 1-533): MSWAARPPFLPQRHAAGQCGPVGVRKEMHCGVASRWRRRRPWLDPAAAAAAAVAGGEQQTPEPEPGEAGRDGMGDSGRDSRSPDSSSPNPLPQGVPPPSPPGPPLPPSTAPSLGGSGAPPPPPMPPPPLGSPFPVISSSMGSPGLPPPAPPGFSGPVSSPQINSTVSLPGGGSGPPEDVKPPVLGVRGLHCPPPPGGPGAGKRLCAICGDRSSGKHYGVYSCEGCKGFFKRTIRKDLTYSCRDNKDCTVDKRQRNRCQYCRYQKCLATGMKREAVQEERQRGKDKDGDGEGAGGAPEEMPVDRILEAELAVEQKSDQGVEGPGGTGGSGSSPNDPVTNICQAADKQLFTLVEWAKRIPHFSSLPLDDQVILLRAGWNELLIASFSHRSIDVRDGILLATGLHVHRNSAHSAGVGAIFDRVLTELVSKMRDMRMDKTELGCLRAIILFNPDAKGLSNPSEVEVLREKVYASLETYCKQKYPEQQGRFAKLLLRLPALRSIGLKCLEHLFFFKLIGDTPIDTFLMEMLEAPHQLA
Method: A multiple reporter transcription unit (MRTU) library consisting of 48 transcription factor binding sites was transfected into the HepG2 human liver hepatoma cell line. In addition to the cis-acting reporter genes (CIS), a modification of the approach was used to generate a trans-system (TRANS) with a mammalian one-hybrid assay consisting of an additional 25 MRTU library reporting the activity of nuclear receptor super-family members. […] These assays were performed by Attagene Inc. (Morrisville NC) under contract to EPA.
In addition to the cis-acting reporter genes (CIS), a modification of the approach was used to generate a trans-system (TRANS) with a mammalian one-hybrid assay consisting of an additional 25 MRTU library reporting the activity of nuclear receptor super-family members. […] Chemicals were then tested in the CIS and TRANS assays at seven concentrations starting at the MTC and followed by three-fold serial dilutions. These assays were performed by Attagene Inc. (Morrisville NC) under contract to EPA. Detailed description of the methods, data and analysis methods for this dataset will be presented in a separate publication.

[2] = target: T2, ESR1 (estrogen receptor 1) (Homo sapiens, UniProt P03372); test: ATG_ERa_TRANS: Factorial reporter gene assay (HepG2); assay type: cell-based; conditions: HepG2; scale not given, looks like -log10 of molar active concentration; 0 = no activity
T2 construct: expressed in transfected cells; host or cells: HepG2
T2 sequence (P03372 whole entry): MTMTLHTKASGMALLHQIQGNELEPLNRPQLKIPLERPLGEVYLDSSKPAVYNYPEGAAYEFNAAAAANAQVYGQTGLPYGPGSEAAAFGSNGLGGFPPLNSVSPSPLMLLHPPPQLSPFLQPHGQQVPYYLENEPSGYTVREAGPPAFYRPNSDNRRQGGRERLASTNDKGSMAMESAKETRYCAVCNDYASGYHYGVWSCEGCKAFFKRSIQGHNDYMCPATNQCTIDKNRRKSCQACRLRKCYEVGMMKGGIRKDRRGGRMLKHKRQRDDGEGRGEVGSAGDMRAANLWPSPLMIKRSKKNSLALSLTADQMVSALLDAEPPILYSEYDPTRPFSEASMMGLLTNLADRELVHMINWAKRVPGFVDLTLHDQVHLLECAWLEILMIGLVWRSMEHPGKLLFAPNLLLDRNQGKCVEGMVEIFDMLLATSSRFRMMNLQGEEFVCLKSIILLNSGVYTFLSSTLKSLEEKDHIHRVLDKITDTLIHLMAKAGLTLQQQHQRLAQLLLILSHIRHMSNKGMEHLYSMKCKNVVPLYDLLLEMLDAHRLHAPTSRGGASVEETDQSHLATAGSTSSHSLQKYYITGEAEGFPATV
Method in brief: (§1)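 HepG2 cells transfected with multiplexed reporter libraries: cis-acting binding-site reporters (CIS) and a one-hybrid nuclear-receptor trans system (TRANS). Chemicals tested at seven concentrations, starting at the maximum tolerated concentration with three-fold serial dilutions.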

[3] = test system: ABCB1; test: CLZD_ABCB1: Change in expression of ABCB1 (primary human hepatocytes); assay type: cell-based; conditions: 24 hr, scale not given, looks like -log10 of molar active concentration, 0 = no activity
Method in brief: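 Primary human hepatocytes exposed to 5 concentrations (0.004-40 µM) for 6, 24 or 48 hr; transcript levels measured by multiplexed quantitative nuclease protection assay. Markers of nuclear receptor pathways: CYP1A1 (AhR), CYP2B6 and ABCB1 (CAR), CYP3A4 (PXR).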

[4] = target: T3, PXR (NR1I2) (Homo sapiens, UniProt O75469); test: ATG_PXR_TRANS: Factorial reporter gene assay (HepG2); assay type: cell-based; parameters: endogenous in cells; host or cells: HepG2; conditions: HepG2; scale not given, looks like -log10 of molar active concentration; 0 = no activity
T3 sequence (O75469 1-434): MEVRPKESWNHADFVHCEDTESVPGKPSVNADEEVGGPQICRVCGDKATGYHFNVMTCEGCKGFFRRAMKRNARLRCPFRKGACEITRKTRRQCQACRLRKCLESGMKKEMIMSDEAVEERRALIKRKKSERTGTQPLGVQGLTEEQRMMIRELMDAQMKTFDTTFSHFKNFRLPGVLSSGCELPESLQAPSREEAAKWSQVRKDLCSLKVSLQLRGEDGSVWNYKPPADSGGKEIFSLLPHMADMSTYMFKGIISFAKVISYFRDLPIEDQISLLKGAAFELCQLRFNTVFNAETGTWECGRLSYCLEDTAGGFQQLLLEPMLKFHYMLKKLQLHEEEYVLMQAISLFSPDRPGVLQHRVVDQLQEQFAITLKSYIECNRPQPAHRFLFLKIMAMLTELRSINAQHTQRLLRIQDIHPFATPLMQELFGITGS
Method in brief: as §1

[5] = test system: Rat Liver; conditions: rat chronic study, liver, preneoplastic lesion; coded 6 / 0, code not explained here; ref ToxRefDB; cited from earlier work
[6] = test system: Rat Liver; conditions: rat chronic study, liver, neoplastic lesion; coded 6 / 0, code not explained here; ref ToxRefDB; cited from earlier work

SMILES	ATG_RXRb_TRANS [1]	ATG_ERa_TRANS [2]	CLZD_ABCB1_24 [3]	ATG_PXR_TRANS [4]	CHR_Rat_Liver_2_PreneoplasticLesion [5]	CHR_Rat_Liver_3_NeoplasticLesion [6]
OB(O)O [r41]	0	0	0	0	0	0
CCCCOCN(C(=O)CCl)c1c(CC)cccc1CC [r46]	0	0	0	5.959	0	0
COc1nc(C)nc(NC(=O)NS(=O)(=O)c2ccccc2Cl)n1 [r63]	0	0	0	0	0	0
CCSC(=O)N(CC(C)C)CC(C)C [r49]	0	0	0	0	0	0

— paper PMC3038857, “Using Nuclear Receptor Activity to Stratify Hepatocarcinogens” (PLoS ONE, 2011)
